Data on 7 molecules can be found in patent publication US20260201008A1, “SECRETIN-DERIVED GLP1R SELECTIVE AGONISTS” (GUBRA A/S, priority 2023, published 2026).

Read-outs that look alike come from different tables or passages of the source. Numbered stars: 1 amine (or outer) side, 2 acyl side, 3 side chain; on linkers, the order of the positions; unused ones are H or OH. Square brackets hold non-standard residues; d marks the D form. Side chains are listed from the residue outwards. Peptide text beside a SMILES is read from it. * marks the point of attachment. C20 diacid = O=C(O)CCCCCCCCCCCCCCCCCCC(=O)*; γGlu = O=C(O)[C@H](CCC(=O)[*:2])N[*:1]; AEEA = NCCOCCOCC(=O)O; Aib = CC(C)(N)C(=O)O

A short description of data set [1]: Turbidity of crude library peptides (absorbance at 600 nm). The format is physicochemical. The note with it: Physical stability of peptides. The method, boiled down: (§1)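 Turbidity is the absorbance at 600 nm, taken before heating. Fibril signal is the mean ThT emission at 480 nm (450 nm excitation), read every 10 min over 72 h at 40° C with 700 rpm shaking between reads. Peptides at 267 μM, pH 4.0 acetate or pH 7.0 phosphate buffer (50 mM), 4 μM ThT final.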

Data set [2] is described as follows: Fibril formation of crude library peptides (Thioflavin T). The data set is classed as physicochemical. The arrangement: key: average ThT fluorescence emission at 480 nm (ex 450 nm), raw units. The note with it: Physical stability of peptides. In a few lines: as §1
Another data set deals with GLP1R (Homo sapiens, UniProt P43220). Description: hGLP1R potency, cAMP accumulation in CHO-K1 cells stably overexpressing hGLP1R. The format is cell-based. The arrangement: host or cells: CHO-K1. The conditions noted are these: for EC50: cAMP accumulation, CHO-K1 cells overexpressing hGLP1R; for SCTR EC50/GLP1R EC50 ratio: selectivity for hGLP1R over hSCTR, cAMP accumulation in CHO-K1 cells; for Selectivity: SCTR EC50/GLP1R EC50 ratio. The method, boiled down:
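EC50 derives from variable-slope nonlinear regression of cAMP HTRF signal, with purified peptides tested as 11 three-fold dilutions in duplicate. Assay: hGLP1R-overexpressing CHO-K1 cells, 0.5 mM IBMX, 0.05% casein in DPBS, 30 min room-temperature stimulation, GLP-1(7-36) as reference agonist.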
On the technique in general: cAMP levels reflect the balance of adenylyl cyclase and phosphodiesterase activity.

The next data set deals with SCTR (Homo sapiens, UniProt P47872). Kind of data set: hSCTR potency, cAMP accumulation in CHO-K1 cells stably overexpressing hSCTR. The format is cell-based. The arrangement: alternatively Euroscreen ES-712-AF; FAST-0161L; host or cells: CHO-K1. The conditions noted are these: cAMP accumulation, CHO-K1 cells overexpressing hSCTR. In a few lines: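 EC50 derived from variable-slope nonlinear regression on 11-point, 3-fold series run in duplicate (crude peptides: 5 points, 10-fold, n=1). Compound stimulation lasted 30 min at room temperature in casein/IBMX-containing DPBS (0.05%, 0.5 mM), 2000 cells/well; cAMP detected by time-resolved FRET after one hour.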

[3] abbreviates: read-out: hGLP1R pEC50 (converted).
Setting [4] is: read-out: hSCTR pEC50 (converted).
The mark [5] stands for this setting: read-out: pEC50 hGLPR1 (converted).
Setting [6] is: read-out: pEC50 hSCTR (converted).

SCTR, sequence (P47872 23-440): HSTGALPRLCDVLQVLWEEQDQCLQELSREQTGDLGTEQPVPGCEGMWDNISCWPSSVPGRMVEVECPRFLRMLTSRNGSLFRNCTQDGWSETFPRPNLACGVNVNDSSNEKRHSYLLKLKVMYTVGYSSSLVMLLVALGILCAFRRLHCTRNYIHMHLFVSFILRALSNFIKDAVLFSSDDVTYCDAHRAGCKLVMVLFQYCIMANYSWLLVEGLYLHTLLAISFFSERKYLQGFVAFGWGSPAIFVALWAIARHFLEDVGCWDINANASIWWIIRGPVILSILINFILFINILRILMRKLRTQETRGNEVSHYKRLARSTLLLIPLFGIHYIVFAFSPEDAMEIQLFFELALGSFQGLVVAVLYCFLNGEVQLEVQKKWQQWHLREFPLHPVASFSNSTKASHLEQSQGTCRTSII
GLP1R, sequence (P43220 24-463): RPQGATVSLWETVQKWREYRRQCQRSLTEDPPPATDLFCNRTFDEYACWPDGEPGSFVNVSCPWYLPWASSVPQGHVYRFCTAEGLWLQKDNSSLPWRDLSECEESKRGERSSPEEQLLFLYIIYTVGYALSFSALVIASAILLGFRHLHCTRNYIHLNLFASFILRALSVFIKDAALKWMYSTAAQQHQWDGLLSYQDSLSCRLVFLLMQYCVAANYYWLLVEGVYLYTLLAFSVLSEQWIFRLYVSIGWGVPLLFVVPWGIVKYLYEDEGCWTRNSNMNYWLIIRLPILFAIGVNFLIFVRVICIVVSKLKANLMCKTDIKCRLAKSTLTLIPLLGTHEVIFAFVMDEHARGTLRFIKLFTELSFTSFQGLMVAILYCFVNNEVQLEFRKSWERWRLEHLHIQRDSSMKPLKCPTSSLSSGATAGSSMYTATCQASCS

As for `CC[C@H](C)[C@H](NC(=O)[C@H](Cc1ccccc1)NC(=O)[C@H](CCCNC(=N)N)NC(=O)[C@H](CCC(N)=O)NC(=O)[C@H](CC(C)C)NC(=O)[C@H](C)NC(=O)[C@H](C)NC(=O)CNC(=O)[C@H](CCC(=O)O)NC(=O)[C@H](CC(C)C)NC(=O)[C@H](CC(C)C)NC(=O)[C@H](Cc1ccccc1)NC(=O)[C@H](CO)NC(=O)[C@@H](NC(=O)[C@H](CC(=O)O)NC(=O)[C@H](CO)NC(=O)[C@@H](NC(=O)[C@H](Cc1ccccc1)NC(=O)[C@@H](NC(=O)CNC(=O)[C@H](CCC(=O)O)NC(=O)C(C)(C)NC(=O)[C@@H](N)Cc1c[nH]cn1)[C@@H](C)O)[C@@H](C)O)[C@@H](C)CC)C(=O)N[C@@H](CCC(N)=O)C(=O)N[C@@H](Cc1c[nH]c2ccccc12)C(=O)N[C@@H](CC(C)C)C(=O)N[C@H](C(N)=O)C(C)C` [compound 117] (H-H[Aib]EGTFTSDISFLLEGAALQRFIQWLV-NH2), the “Turbidity (pH 7)” value in data set [1] is 0.50. In data set [2], the Fibril formation came out at 238242. Further, the EC50 at GLP1R (setting [3]) is 0.01 nM; at SCTR (setting [4]), 200 nM. The “SCTR EC50/GLP1R EC50 ratio” value at GLP1R came out at 19436.
The matching figures for `CC(C)C[C@H](NC(=O)[C@H](Cc1ccccc1)NC(=O)[C@H](CCCNC(=N)N)NC(=O)[C@H](CCC(N)=O)NC(=O)[C@H](CC(C)C)NC(=O)C(C)(C)NC(=O)[C@H](C)NC(=O)[C@H](CCC(=O)O)NC(=O)[C@H](CCC(=O)O)NC(=O)[C@H](CCCCNC(=O)COCCOCCNC(=O)COCCOCCNC(=O)CC[C@H](NC(=O)CCCCCCCCCCCCCCCCCCC(=O)O)C(=O)O)NC(=O)[C@H](CC(C)C)NC(=O)[C@H](Cc1ccc(O)cc1)NC(=O)[C@H](CO)NC(=O)[C@@H](NC(=O)[C@H](CC(=O)O)NC(=O)[C@H](CO)NC(=O)[C@@H](NC(=O)[C@H](Cc1ccccc1)NC(=O)[C@@H](NC(=O)CNC(=O)[C@H](CCC(=O)O)NC(=O)C(C)(C)NC(=O)[C@@H](N)Cc1c[nH]cn1)[C@@H](C)O)[C@@H](C)O)C(C)C)C(=O)N[C@@H](CCC(=O)O)C(=O)N[C@@H](Cc1c[nH]c2ccccc12)C(=O)N[C@@H](CC(C)C)C(=O)N[C@H](C(N)=O)C(C)C` [compound 169] (H-H[Aib]EGTFTSDVSYLK([AEEA-AEEA-γGlu-C20 diacid])EEA[Aib]LQRFLEWLV-NH2): 0.08, 3552, 0.0398 nM, 501 nM and 14974.
Consider `CC(C)C[C@H](NC(=O)[C@H](C)NC(=O)[C@H](CCC(=O)O)NC(=O)[C@H](CCC(=O)O)NC(=O)[C@H](CCCCNC(=O)COCCOCCNC(=O)COCCOCCNC(=O)CC[C@H](NC(=O)CCCCCCCCCCCCCCCCCCC(=O)O)C(=O)O)NC(=O)[C@H](CC(C)C)NC(=O)[C@H](Cc1ccc(O)cc1)NC(=O)[C@H](CO)NC(=O)[C@@H](NC(=O)[C@H](CC(=O)O)NC(=O)[C@H](CO)NC(=O)[C@@H](NC(=O)[C@H](Cc1ccccc1)NC(=O)[C@@H](NC(=O)CNC(=O)[C@H](CCC(=O)O)NC(=O)C(C)(C)NC(=O)[C@@H](N)Cc1c[nH]cn1)[C@@H](C)O)[C@@H](C)O)C(C)C)C(=O)N[C@@H](CC(C)C)C(=O)N[C@@H](CCC(N)=O)C(=O)N[C@@H](CCCNC(=N)N)C(=O)N[C@@H](Cc1ccccc1)C(=O)N[C@@H](CC(C)C)C(=O)N[C@@H](CCC(=O)O)C(=O)N[C@@H](Cc1c[nH]cn1)C(=O)N[C@@H](CC(C)C)C(=O)N[C@H](C(N)=O)C(C)C` [compound 132] (H-H[Aib]EGTFTSDVSYLK([AEEA-AEEA-γGlu-C20 diacid])EEALLQRFLEHLV-NH2), for which the “Turbidity (pH 7)” value in data set [1] was determined as 0.08. The Fibril formation in data set [2] worked out at 3358. Also, the EC50 at GLP1R (setting [3]) was 0.02 nM; at SCTR (setting [4]) it was 200 nM. Further, the “SCTR EC50/GLP1R EC50 ratio” value on GLP1R was found to be 10415.
With `CC(C)C[C@H](NC(=O)[C@H](Cc1ccccc1)NC(=O)[C@H](CCCNC(=N)N)NC(=O)[C@H](CCC(N)=O)NC(=O)[C@H](CC(C)C)NC(=O)C(C)(C)NC(=O)[C@H](C)NC(=O)[C@H](CCC(=O)O)NC(=O)[C@H](CCC(=O)O)NC(=O)[C@H](CCCCNC(=O)COCCOCCNC(=O)COCCOCCNC(=O)CC[C@H](NC(=O)CCCCCCCCCCCCCCCCCCC(=O)O)C(=O)O)NC(=O)[C@H](CC(C)C)NC(=O)[C@H](CC(N)=O)NC(=O)[C@H](CO)NC(=O)[C@@H](NC(=O)[C@H](CC(=O)O)NC(=O)[C@H](CO)NC(=O)[C@@H](NC(=O)[C@H](Cc1ccccc1)NC(=O)[C@@H](NC(=O)CNC(=O)[C@H](CCC(=O)O)NC(=O)C(C)(C)NC(=O)[C@@H](N)Cc1c[nH]cn1)[C@@H](C)O)[C@@H](C)O)C(C)C)C(=O)N[C@@H](CCC(=O)O)C(=O)N[C@@H](Cc1c[nH]cn1)C(=O)N[C@@H](CC(C)C)C(=O)N[C@H](C(N)=O)C(C)C` [compound 136] (H-H[Aib]EGTFTSDVSNLK([AEEA-AEEA-γGlu-C20 diacid])EEA[Aib]LQRFLEHLV-NH2), in data set [1], the “Turbidity (pH 7)” value was determined as 0.08. In data set [2], this molecule yielded a Fibril formation of 3353. Also, the results for the EC50 at GLP1R (setting [3]) and at SCTR (setting [4]) were 0.0126 nM and 12.6 nM, respectively. The “SCTR EC50/GLP1R EC50 ratio” value on GLP1R was found to be 857.
Turning to `CC(C)C[C@H](NC(=O)[C@H](Cc1ccccc1)NC(=O)[C@H](CCCNC(=N)N)NC(=O)[C@H](CCC(N)=O)NC(=O)[C@H](CO)NC(=O)[C@H](C)NC(=O)[C@H](C)NC(=O)[C@H](Cc1ccccc1)NC(=O)[C@H](CCC(=O)O)NC(=O)[C@H](CCCCNC(=O)COCCOCCNC(=O)COCCOCCNC(=O)CC[C@H](NC(=O)CCCCCCCCCCCCCCCCCCC(=O)O)C(=O)O)NC(=O)[C@H](CC(C)C)NC(=O)[C@H](CCCNC(=N)N)NC(=O)[C@H](CO)NC(=O)[C@@H](NC(=O)[C@H](CC(=O)O)NC(=O)[C@H](CO)NC(=O)[C@@H](NC(=O)[C@H](Cc1ccccc1)NC(=O)[C@@H](NC(=O)CNC(=O)[C@H](CCC(=O)O)NC(=O)C(C)(C)NC(=O)[C@@H](N)Cc1c[nH]cn1)[C@@H](C)O)[C@@H](C)O)C(C)C)C(=O)N[C@@H](CCC(=O)O)C(=O)N[C@@H](Cc1c[nH]cn1)C(=O)N[C@@H](CC(C)C)C(=O)N[C@H](C(N)=O)C(C)C` [compound 52] (H-H[Aib]EGTFTSDVSRLK([AEEA-AEEA-γGlu-C20 diacid])EFAASQRFLEHLV-NH2), the “Turbidity (pH 7)” value in data set [1] worked out at 0.08. The molecule also displayed a Fibril formation in data set [2] of 241858. In addition, the Selectivity at GLP1R worked out at 3341. Also, the EC50 was 0.126 nM on GLP1R (setting [5]) and 398 nM at SCTR (setting [6]).
For `CC[C@H](C)[C@H](NC(=O)[C@H](Cc1ccccc1)NC(=O)[C@H](CCCNC(=N)N)NC(=O)[C@H](CCC(N)=O)NC(=O)[C@H](CC(C)C)NC(=O)[C@H](C)NC(=O)[C@H](C)NC(=O)CNC(=O)[C@H](CCC(=O)O)NC(=O)[C@H](CC(C)C)NC(=O)[C@H](CC(C)C)NC(=O)C(C)(C)NC(=O)[C@H](CO)NC(=O)C(C)(C)NC(=O)[C@H](CC(=O)O)NC(=O)[C@H](CO)NC(=O)[C@@H](NC(=O)[C@H](Cc1ccccc1)NC(=O)[C@@H](NC(=O)CNC(=O)[C@H](CCC(=O)O)NC(=O)C(C)(C)NC(=O)[C@@H](N)Cc1c[nH]cn1)[C@@H](C)O)[C@@H](C)O)C(=O)N[C@@H](CCC(N)=O)C(=O)N[C@@H](Cc1c[nH]c2ccccc12)C(=O)N[C@@H](CC(C)C)C(=O)N[C@H](C(N)=O)C(C)C` [compound 107] (H-H[Aib]EGTFTSD[Aib]S[Aib]LLEGAALQRFIQWLV-NH2), in data set [1], the “Turbidity (pH 7)” value was determined as 0.15. This molecule displayed a Fibril formation in data set [2] of 3284. Moreover, the EC50 on GLP1R (setting [3]) is 0.158 nM; at SCTR (setting [4]), 1000 nM. Besides, the “SCTR EC50/GLP1R EC50 ratio” value on GLP1R is 6863.
Regarding `CC(C)C[C@H](NC(=O)[C@H](Cc1ccccc1)NC(=O)[C@H](CCCNC(=N)N)NC(=O)[C@H](CCC(N)=O)NC(=O)[C@@H](NC(=O)[C@H](C)NC(=O)[C@H](C)NC(=O)[C@H](CCC(=O)O)NC(=O)[C@H](CCC(=O)O)NC(=O)[C@H](CCCCNC(=O)COCCOCCNC(=O)COCCOCCNC(=O)CC[C@H](NC(=O)CCCCCCCCCCCCCCCCCCC(=O)O)C(=O)O)NC(=O)[C@H](CC(C)C)NC(=O)[C@H](CCC(=O)O)NC(=O)[C@H](CO)NC(=O)[C@@H](NC(=O)[C@H](CC(=O)O)NC(=O)[C@H](CO)NC(=O)[C@@H](NC(=O)[C@H](Cc1ccccc1)NC(=O)[C@@H](NC(=O)CNC(=O)[C@H](CCC(=O)O)NC(=O)C(C)(C)NC(=O)[C@@H](N)Cc1c[nH]cn1)[C@@H](C)O)[C@@H](C)O)C(C)C)[C@@H](C)O)C(=O)N[C@@H](CCC(=O)O)C(=O)N[C@@H](Cc1c[nH]cn1)C(=O)N[C@@H](CC(C)C)C(=O)N[C@H](C(N)=O)C(C)C` [compound 55] (H-H[Aib]EGTFTSDVSELK([AEEA-AEEA-γGlu-C20 diacid])EEAATQRFLEHLV-NH2), the “Turbidity (pH 7)” value in data set [1] worked out at 0.09. The Fibril formation in data set [2] was 6162. Further, on GLP1R, the Selectivity was 16315. Moreover, the EC50 is 0.01 nM at GLP1R (setting [5]) and 158 nM on SCTR (setting [6]).
